System: cold sores
Format: in vivo, human

Nc1nc2c(ncn2COCCO)c(=O)[nH]1 [acyclovir]
response of cold sores to treatment (Example 3, person, history, oral and topical): unresponsiveness
side effects (human, in vivo, po): dizziness

— patent publication US11191795B2, “Herbal compositions and methods for treating herpes” (priority 2019, dated 2021)
